Assay: crystallinity of efavirenz upon compression
Assay type: physicochemical
Conditions: compression into tablet

Question: For `O=C1Nc2ccc(Cl)cc2[C@@](C#CC2CC2)(C(F)(F)F)O1` [efavirenz, (−)-6-chloro-4-cyclopropylethynyl-4-trifluoromethyl-1,4-dihydro-2H-3,1-benzoxazin-2-one], which crystallinity upon compression is on record?
Answer: Its crystallinity upon compression is “loses crystallinity upon compression”.
